Marks after values point to notes of the source that are not given here.
Columns and labels:
A549 cells = assay: Growth inhibition of siRNA-transfected A549 cells, SYBR Green I DNA content; format: cell-based, human; conditions: for growth inhibition, A549 cells: standardized against control siRNA; for Growth Inhibition in A549 cells by 10 nM siRNA: transporter gene targets
Procedure, shortened: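 Growth read-out: cellular DNA quantified with SYBR Green I (485/535 nm) 96 h after transfection, cells frozen, thawed and lysed in PBS/1% Triton X-100, pH 7. Cells (A549, 5×10^3 cells/cm^2) received 10 nM siRNA by RNAiMAX; non-specific siRNA served as control; triplicate wells averaged.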

wt HCT-116 cells = assay: Growth inhibition of siRNA-transfected wt HCT-116 cells, SYBR Green I DNA content; format: cell-based; conditions: standardized against control siRNA
Experimental: A549 cells (human lung cancer cell line; ATCC No. CCL-185), SK-MeI-5 cells (human melanoma cell line; ATCC No. HTB-70), MCF-7 cells (human adenocarcinoma cell line; ATCC No. HTB-22), HCT-116 cells (colorectal carcinoma; ATCC CCL-247) and HCT-116 p53 null cells (derived from ATCC No. CCL-247; Bunz et al., Science 282:1497-1501, 1998) were cultured in RPMI 1640 medium with 10% v/v heat-inactivated fetal calf serum (FCS). Cells were seeded at a density of 5×10^4 cells/cm^2 in multi-well tissue culture plates. Sequences of Stealth™ siRNA duplexes (Invitrogen) targeting human ribonucleotide reductase subunit 1 (SEQ ID NO: 22) and subunit 2 (SEQ ID NO; 38) are given in SEQ ID NO: 4830-4832 (DNA), and SEQ ID NO: 5136-5138 (RNA) for RRM1, and SEQ ID NO: 5306-5308 (DNA), and SEQ ID NO: 5303-5305 (RNA) for RRM2. siRNAs were transfected at different concentrations into cells using Lipofectamine™ RNAiMAX transfection reagent (Invitrogen). Non-specific siRNA (SEQ ID NO: 4804 and 4805 (DNA), and SEQ ID NO: 5301 and 5302 (RNA)) were used as controls. The cellular DNA content was measured using a SYBR Green I-based fluorometric assay at 24, 48, 72 and 96 hours after transfection (120 hours for the MCF-7 cells), as follows. At the indicated time points following reverse transfection, cells were harvested and frozen at −80° C. overnight. Cells were thawed and cell lysis buffer (phosphate-buffered saline (PBS) containing 1% Triton X-100, pH 7) and SYBR Green I (1:10^5 V/V; Invitrogen) was added to the wells and incubated overnight in the dark at 4° C.
The following day, cell lysates were mixed thoroughly, and DNA fluorescence was measured with a Wallac Victor^2 plate reader (Turku, Finland) set at an excitation frequency of 485 nm and measuring emission at 535 nm.
To determine the effect of the p53-status of cells on RRM1 and RRM2 knockdown, growth inhibition of wild type (wt) HCT-116 and p53 null HCT-116 cells by RRM1 and RRM2-targeted siRNA were determined. Cells were reverse transfected with 1.0 and 10 nM RRM1-3 (SEQ ID NO: 4832 (DNA), and SEQ ID NO: 5138 (RNA)), 1.0 and 10 nM RRM2-2 (SEQ ID NO: 5307 (DNA), and SEQ ID NO: 5304 (RNA)) or 10 nM control siRNA (SEQ ID NO: 4804 (DNA), and SEQ ID NO: 5301 (RNA)), and growth measured daily for up to 4 days post transfection.
siRNA-mediated RNAi was also determined on a panel of different cell lines. A549, SK-MeI-5, wt HCT-116, HCT-116−/−p53 and MCF-7 cells were transfected with 10 nM siRNAs targeting YBX-1 and growth inhibition determined as described above. The YBX1 siRNAs are given in SEQ ID NO: 4981 to 4985 (DNA) and SEQ ID NO: 5276-5280 (RNA). A non-specific siRNA (SEQ ID NO: 4804 (DNA) and SEQ ID NO: 5301 (RNA)) was used as control. Growth inhibition by the siRNAs, given in Table 14, was standardized against the inhibition obtained with the control siRNA.
HCT-116 and A549 cells were transfected with 0.1, 1.0 and 10 nM siRNA targeting TYMS and DHFR (SEQ ID NO: 4833 to 4838 (DNA), and SEQ ID NO: 5139-5144 (RNA)) using Lipofectamine™ RNAiMAX and incubated for 96 h, in either normal fetal calf serum or serum dialyzed to remove low molecular weight molecules (cut-off 10 kDa). Growth of cells was measured by measuring the total DNA content per well using the SYBR Green assay as described above, and values are given as the percentage of the averaged control values. […] Inhibition increased with increasing siRNA concentration, which was not observed with a non-specific control siRNA. […]

[1] = 10 nM siRNA, DNA content 96 hours after transfection

SEQ ID NO: 4983: siRNA targeting YBX1 (chain 1 TACTGTGGTCGACGCCCATAGGGTC; chain 2 UACUGUGGUCGACGCCCAUAGGGUC; chemistry not given here; one strand in two spellings)
growth inhibition, A549 cells (A549 cells; 10 nM siRNA): + (At least 20% inhibition)

SEQ ID NO: 4982: siRNA targeting YBX1 (chain 1 TTTGCTGGTAATTGCGTGGAGGACC; chain 2 UUUGCUGGUAAUUGCGUGGAGGACC; chemistry not given here; one strand in two spellings)
growth inhibition, A549 cells (A549 cells; 10 nM siRNA): +++ (At least 70% inhibition)
growth inhibition, wt HCT-116 cells (wt HCT-116 cells; 10 nM siRNA): +++ (At least 70% inhibition)

SEQ ID NO: 4985: siRNA targeting YBX1 (chain 1 CAGCCTAGAGAGGACGGCAATGAAG; chain 2 CAGCCUAGAGAGGACGGCAAUGAAG; chemistry not given here; one strand in two spellings)
growth inhibition, A549 cells (A549 cells; 5 nM siRNA): +** (At least 20% inhibition)
growth inhibition, wt HCT-116 cells (wt HCT-116 cells; 1 nM siRNA): −* (No inhibition)

SEQ ID NO: 5307: Stealth siRNA targeting RRM2 (chain 1 AATTCATCCCAATGAGCTTCACAGG; chain 2 AAUUCAUCCCAAUGAGCUUCACAGG; Stealth siRNA, chemical pattern not given here; one strand in two spellings)
Growth Inhibition in A549 cells (A549 cells; [1]): ++ (inhibits by at least 75%)

SEQ ID NO: 4932: siRNA targeting SLC29A1 (ENT1) (chain 1 TGATAAAGTAGCCGAAGGCACTTTC; chain 2 UGAUAAAGUAGCCGAAGGCACUUUC; chemistry not given here; one strand in two spellings)
Growth Inhibition in A549 cells by 10 nM siRNA (A549 cells; [1]): − (no growth inhibition)

SEQ ID NO: 4924: siRNA targeting SLC16A1 (MCT1) (chain 1 TTAGACTTATCTTTCCCTGCCTTGG; chain 2 UUAGACUUAUCUUUCCCUGCCUUGG; chemistry not given here; one strand in two spellings)
Growth Inhibition in A549 cells by 10 nM siRNA (A549 cells; [1]): ++ (inhibits by at least 75%)

SEQ ID NO: 4984: siRNA targeting YBX1 (chain 1 CAAGGTAGACCAGTGAGGCAGAATA; chain 2 CAAGGUAGACCAGUGAGGCAGAAUA; chemistry not given here; one strand in two spellings)
growth inhibition, A549 cells (A549 cells; 5 nM siRNA): ++** (At least 50% inhibition)
growth inhibition, wt HCT-116 cells (wt HCT-116 cells; 1 nM siRNA): +* (At least 20% inhibition)
